Assay results: patent publication US20260183295A1, “METHODS AND COMPOSITIONS FOR TREATING CANCER” (Onconova Therapeutics, Inc., priority 2022, published 2026)

Columns and labels:
NUAK1 = molecular target: T1, NUAK1 (Homo sapiens, UniProt O60285); assay: NUAK1 CETSA; format: cell-based; design: endogenous in cells; host or cells: MDA-MB-231 (lysates and intact cells)
T1 sequence (O60285 1-661): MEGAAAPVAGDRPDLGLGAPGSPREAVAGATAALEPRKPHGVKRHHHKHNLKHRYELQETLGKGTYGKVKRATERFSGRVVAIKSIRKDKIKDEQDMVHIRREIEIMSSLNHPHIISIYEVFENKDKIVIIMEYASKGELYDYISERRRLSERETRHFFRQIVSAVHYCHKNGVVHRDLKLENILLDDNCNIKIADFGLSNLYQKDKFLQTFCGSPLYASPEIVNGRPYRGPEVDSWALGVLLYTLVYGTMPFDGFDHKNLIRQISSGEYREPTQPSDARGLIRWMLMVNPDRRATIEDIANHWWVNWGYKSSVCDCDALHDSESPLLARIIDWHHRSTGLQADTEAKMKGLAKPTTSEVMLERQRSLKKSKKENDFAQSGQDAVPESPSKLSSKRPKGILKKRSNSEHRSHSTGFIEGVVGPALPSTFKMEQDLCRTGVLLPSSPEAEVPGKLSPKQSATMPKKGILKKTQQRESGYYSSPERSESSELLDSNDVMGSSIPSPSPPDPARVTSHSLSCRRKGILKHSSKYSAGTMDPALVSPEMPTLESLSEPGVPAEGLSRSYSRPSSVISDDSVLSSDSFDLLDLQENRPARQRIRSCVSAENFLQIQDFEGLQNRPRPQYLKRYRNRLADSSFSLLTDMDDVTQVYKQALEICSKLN
Description: Following treatment, cell lysates were thermally treated in a thermal gradient profile across a temperature range. Following the thermal shift, cell lysates were spun by centrifuge to pellet aggregate protein and the supernatant withdrawn. The supernatant was then denatured in buffer and heated to denature, reduce, and alkylate the supernatant proteins. Following heating and cooling to room temperature, cold acetone was added to the supernatant samples and proteins precipitated.
TNBC MDA-MB-231 cells were grown at 37° C. in 5% CO2 and suspended in warm media and split into 4 equal volumes. […] Cells were incubated and then pelleted. Following pelleting, the cells were washed, resuspended, and heated in a thermal gradient. Following heating, the samples were flash frozen and lysed in lysis buffer, agitated by vortex, and sonicated prior to centrifugation. The supernatant was collected and denaturation buffer added. Cold acetone was then added to the cell samples, and protein collected by centrifugation. […]
The intact cell protein samples and lysate protein samples were then digested and labeled for mass spectrometry analysis according to the manufacturer's recommended protocols. Digested and labeled protein samples were analyzed by mass spectrometry proteomic analysis and the resulting protein targets were analyzed and plotted.

PyMT cells [1] = assay: Senescence-associated β-galactosidase staining, 48 hours; format: cell-based, mouse; conditions: compared to DMSO
Description: Following 48 hours of treatment, cells were stained for the senescence marker β-galactosidase.

CDK4/cyclin D1 = CDK4/cyclin D1 (Homo sapiens, UniProt P11802); assay: CDK4/cyclin D1 NanoBret IC50; format: cell-based
CDK4/cyclin D1, sequence (P11802 whole entry): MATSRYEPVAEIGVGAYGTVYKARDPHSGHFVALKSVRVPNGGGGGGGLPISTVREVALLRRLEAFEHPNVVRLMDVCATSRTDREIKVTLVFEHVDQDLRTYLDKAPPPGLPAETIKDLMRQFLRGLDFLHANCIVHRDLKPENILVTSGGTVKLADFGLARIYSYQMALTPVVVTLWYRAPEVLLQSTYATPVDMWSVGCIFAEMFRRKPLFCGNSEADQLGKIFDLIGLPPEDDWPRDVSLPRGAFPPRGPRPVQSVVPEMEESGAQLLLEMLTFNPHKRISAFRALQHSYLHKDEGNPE
CDK4/cyclin D1, sequence (P24385 whole entry partner): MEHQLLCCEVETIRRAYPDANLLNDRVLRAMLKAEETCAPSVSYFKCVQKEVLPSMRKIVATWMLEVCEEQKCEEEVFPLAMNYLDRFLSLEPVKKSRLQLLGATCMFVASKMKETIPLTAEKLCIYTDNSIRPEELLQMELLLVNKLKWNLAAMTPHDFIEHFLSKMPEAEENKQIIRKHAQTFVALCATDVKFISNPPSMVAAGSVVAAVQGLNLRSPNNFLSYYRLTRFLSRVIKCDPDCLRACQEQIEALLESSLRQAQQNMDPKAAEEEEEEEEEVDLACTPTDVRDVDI

MDA-MB-453 = assay: MTT cell viability, 48 hours; format: cell-based; conditions: Homo sapiens, MDA-MB-453 (TNBC), read-out: 48 h-cell viability decrease
Description: (§1) A panel of […] breast cancer cell lines: T-47D, BT-474, MDA-MB-453, MDA-MB-468, HCC-1937, Hs578T, and MDA-MB-231, was treated for 48 hours with 5 μM Compound 1 and the cell viability was measured using the MTT assay. TABLE 6 summarizes the cell lines, and the change in viability after 48 hours of treatment with Compound 1.

MDA-MB-468 = assay: MTT cell viability, 48 hours; format: cell-based; conditions: Homo sapiens, MDA-MB-468 (TNBC), read-out: 48 h-cell viability decrease
Description: as §1

MDA-MB-231 = assay: MTT cell viability, 48 hours; format: cell-based; conditions: Homo sapiens, MDA-MB-231 (TNBC), read-out: 48 h-cell viability decrease
Description: as §1

BT-474 = assay: MTT cell viability, 48 hours; format: cell-based; conditions: Homo sapiens, BT-474 (HR+ HER2+), read-out: 48 h-cell viability decrease
Description: as §1

Hs578T = assay: MTT cell viability, 48 hours; format: cell-based; conditions: Homo sapiens, Hs-578T, Hs578T (TNBC), read-out: 48 h-cell viability decrease
Description: as §1

HCC-1937 = assay: MTT cell viability, 48 hours; format: cell-based; conditions: Homo sapiens, HCC1937, 48 h, HCC-1937 (TNBC), read-out: 48 h-cell viability decrease
Description: as §1

T-47D = assay: MTT cell viability, 48 hours; format: cell-based; conditions: Homo sapiens, T47D, T-47D (HR+ HER2−), read-out: 48 h-cell viability decrease
Description: as §1

MDA-MB-231 cells = assay: MTT assay, 24 hours; format: cell-based
Hs578T spheroids = assay: CellTiter Glo 3D spheroid viability; format: cell-based; conditions: 48 hours; Compound 1, Comparator 1, Comparator 2 5 μM; Comparator 4 10 μM
Description: Viability of the spheroids was assessed using CellTiter Glo 3D.

PyMT cells [2] = assay: MTT cell viability; format: cell-based, mouse; conditions: 24, 48 and 72 hours; Compound 1 2.5, 5, 10 μM; Comparator 1 5 μM
PARP in MDA-MB-468 = assay: PARP cleavage after 72 hours treatment; format: cell-based; conditions: MDA-MB-468 (TNBC)
Description: (§2) The effects on the different treatment conditions on BUB 1 levels and PARP cleavage were also assessed. For both MNA-MB-231 cells, Compound 1 alone or with HCQ or SBI decreased BUB1 levels and cleaved PARP with […] decreases in cell viability observed for all treatments except Compound 1+SBI in MMA-MB-231 cells. The effects of Compound 1 with or without autophagy inhibitors was less pronounced in HCC-1937 cells.

PARP in MDA-MB-231 = assay: PARP cleavage after 72 hours treatment; format: cell-based; conditions: MDA-MB-231 (TNBC)
Description: as §2

PARP in HCC-1937 = assay: PARP cleavage after 72 hours treatment; format: cell-based; conditions: HCC-1937 (TNBC)
Description: as §2

SMILES: CN1CCN(c2ccc(Nc3ncc4cc(C#N)c(=O)n(C5CCCC5)c4n3)cc2)CC1 [Compound 1, 8-cyclopentyl-2-((4-(4-methylpiperazin-1-yl)phenyl)amino)-7-oxo-7,8-dihydropyrido[2,3-d]pyrimidine-6-carbonitrile]
- CETSA (NUAK1): NEG
- β-galactosidase staining (senescence) (PyMT cells [1]): increased β-galactosidase staining
- IC50 (CDK4/cyclin D1): 1 nM
- cytotoxicity at 5 µM (MDA-MB-453): 50%
- cytotoxicity at 5 µM (MDA-MB-468): 65%
- cytotoxicity at 5 µM (MDA-MB-231): 60%
- cytotoxicity at 5 µM (BT-474): 50%
- cytotoxicity at 5 µM (Hs578T): 40%
- cytotoxicity at 5 µM (HCC-1937): 20%
- cytotoxicity at 5 µM (T-47D): 60%
- cell viability (MTT) (MDA-MB-231 cells; 2.5 μM, 5 μM and 10 μM, compared to Comparator 1 and Comparator 2): decreases cell viability to a greater extent
- effect of zVAD-FMK on cell death, MTT assay (MDA-MB-231 cells; zVAD-FMK 20 μM (FIG. 25)): unaffected by zVAD-FMK treatment
- decrease in organoid viability compared to DMSO (Hs578T spheroids): ~40%
- cell death (MTT cell viability) (PyMT cells [2]): increased cell death relative to DMSO
- PARP Cleavage (PARP in MDA-MB-468): Yes
- PARP Cleavage (PARP in MDA-MB-231): Yes
- PARP Cleavage (PARP in HCC-1937): No
